System: S. suis BgaC
Assay: p-nitrophenol release, absorbance at […] nm
Format: biochemical, Streptococcus suis
Conditions: pH 5.5, 42 °C, 30 min (stated optimum); PBS, 10 mM MgCl2, 10 mM DTT

O=[N+]([O-])c1ccc(O[C@@H]2O[C@H](CO)[C@H](O)[C@H](O)[C@H]2O)cc1 [pNPG, p-nitrophenyl-β-galactopyranoside]
Km: 398 µM
